Results on two compounds are retold here after PMC4569013, “Massive Bioaccumulation and Self‐Assembly of Phenazine Compounds in Live Cells” (Advanced Science, 2015).

Data set [1] concerns RAW264.7 macrophages. In words: Cell associated mass measurements (bioaccumulation, pmole/cell). Conditions: 72 h incubation, normalized by number of cells. The format is cell-based. The procedure: Cell Associated Mass Measurements: […] After an overnight incubation (37 °C, 5% CO2), cells were incubated with 100 μL of the media (DMEM with 5% FBS) containing 5 × 10^−6 M clofazmine or its chemical derivatives (2.5 × 10^−6 M of Compound “I”). Media containing each compound was replaced every day during the 72 h incubation. After the incubation, media was removed and cells were washed with Hank's balanced salt solution (HBSS) buffer (No. 14025; Invitrogen) twice. RAW264.7 macrophage cells in buffer were scraped and MDCK epithelial cells were exposed to Trypsin‐EDTA solution for detachment from the plates for cell number counting and quantification of cell‐associated masses. After centrifugation (650 × g), supernatant was removed and cell pellets were resuspended in 0.1 M citric acid/0.1 M trisodium citrate buffer (pH 5) for cell counting as previously reported.7 Equal numbers of cells in 100 μL in buffer were transferred to 96 well plates and 100 μL of detergent (ATCC, 30‐1010K) was added into wells for cell lysis. Chemical absorbance from each well was measured by the UV–vis microplate reader (Synergy 2, BioTek Instruments, Winooski, VT) at 490 nm wavelength and cell‐associated mass of each compound was calculated by a standard curve generated separately using the same media and presented as pmole/cell by normalizing the amount of chemical in each cell population sample by the number of cells in each sample.

Data set [2] concerns RAW264.7 macrophages. In words: Confocal fluorescence microscopy, intracellular localization of inclusions. Format: cell-based. Conditions: 5 × 10^−6 M, 72 h, live cells. The procedure: (§1) Confocal Fluorescent Microscopy: A Nikon A1 confocal microscope was used for further investigation of live cells incubated with chiral pairs of compounds (T and U) and the parent compound, P. Since crystals or vesicular forms containing chemicals inside the cells incubated with Compound P, T, or U were fluorescent when viewed with the TRITC filter sets, intracellular distribution of these compounds in RAW264.7 or MDCK cells were visualized using a Nikon A1 confocal microscopy (Nikon Instruments Inc., Melville, NY) equipped with diode‐based lasers and a Nikon Apo 60×/1.4 NA oil immersion lens. Briefly, RAW264.7 macrophages or MDCK epithelial cells were seeded in the 8‐well Nunc Lab‐Tek II chambered (#1.5) cover glasses (Thermo Scientific, Pittsburgh, PA) at a density of 8 × 10^3 cells cm^−2 (RAW264.7 cells) or 1.5 × 10^4 cells cm^−2 (MDCK cells) and allowed to adhere overnight (37 °C, 5% CO2). Then, 5 × 10^−6 M of Compound “P” or the related isomers, “T” or “U” in DMEM with 5% FBS (300 μL) was added to the cells and the cells were incubated for 72 h (37 °C, 5% CO2). For live cell imaging, after the removal of media, cells were washed with HBSS buffer twice. Hoechst 33342 (Invitrogen, Carlsbad, CA) was used for staining cell nuclei and FM 1‐43 (Molecular Probes T35356, Invitrogen) for the plasma membrane. Cells were incubated with 300 μL of 1:1 (v/v) dye mixtures of 5 μg mL^−1 Hoechst 33342 and 7 × 10^−6 M FM 1‐43 in HBSS for 15 min at room temperature. Without fixative, the confocal imaging of the live cells was performed using lasers for DAPI (excitation/emission wavelength: 405 nm/450 ± 25 nm), FITC (488 nm/525 ± 25 nm), and TRITC (561 nm/596 ± 25 nm) channels. Z‐stack images of the cells were captured along the Z‐axis (interval, 1 μm) in three fluorescence channels and analyzed by using the Nikon NIS‐Elements 3.2 confocal software (Nikon Instruments Inc., Melville, NY). […]

The test system of data set [3] is MDCK epithelial cells. The data set is described as above. Format: cell-based, Canine. The following applies: 5 × 10^−6 M, 72 h, live cells. How it is done: as §1
In data set [4] the test system is MDCK epithelial cells. In words: Linear diattenuation anisotropy microscopy (LC-PolScope) of intracellular inclusions. Conditions: 72 h, compared with clofazimine. The format is cell-based, Canine. How it is done: The optical design was built on a Nikon Eclipse Ti microscope equipped with the liquid crystal universal compensator consisting of a linear polarizer and a pair of liquid crystal devices. The LC compensator was part of the transillumination path and was used to illuminate the specimen with monochromatic, linearly polarized light of varying polarization orientation. There was no polarization analyzer present in the imaging path. Quantitative intensity images were recorded by a charge‐coupled device camera and a desktop computer calculated the average transmittance, the differential transmittance and the polarization orientation leading to maximum transmittance for each optically resolved picture element (pixel). Acquisition and processing steps were controlled using OpenPolScope plugins for the open source imaging programs ImageJ and Micro‐Manager (MMStudio version 1.4.15). With the combination of hardware and software, polarized light images were acquired at high sensitivity and high spatial resolution for measuring linear diattenuation.
Linear Diattenuation Microscopy Data Acquisition and Analysis: After RAW264.7 macrophages or MDCK epithelial cells were incubated with the compound in the chambered cover glasses for 72 h, at the same time of performing transmitted microscopic examination, cell specimens were examined under linear diattenuation microscopy using the Nikon Eclipse Ti microscope with 40×/0.75 NA objective and monochromatic light of two different center wavelengths, 546 and 623 nm (passband 30 nm). In the OpenPolScope software, Pol‐Acquisition and Pol‐Analyzer plugins (version 2.0) were used to capture, process, and analyze the attenuation images. Before imaging the samples, the setup was calibrated using a specially prepared slide featuring four small pieces of linear polarization filters. The transmission axes of the filters were oriented in steps of 45° providing a means to calibrate the LC universal compensator settings. After the calibration, a sample slide was inserted and first a sequence of polarized light images of a clear, fully transmitting sample area was recorded, followed by an image sequence featuring the cells under investigation. The images of the clear area were used to determine instrument factors which were needed for computing the average and the polarization dependent loss in transmittance in cellular components visible in the second image.10
Linear diattenuation is a material property that can occur in materials such as crystals, in which the light absorbing molecules are arranged with a preferred orientation. The molecular alignment creates principal axes in the material denoting polarization directions for which light is maximally and minimally transmitted. Diattenuation is the difference between maximal (T max) and minimal (T min) transmittance, divided by their sum (Equation (1)): (1) Diattenuation=Tmax‐Tmin/Tmax+Tmin
To simultaneously measure the attenuation of many crystals with arbitrary orientations, we developed algorithms based on four specimen images, each recorded using light of a different polarization orientation: 0°, 45°, 90°, and 135°.10 The four raw images were used to calculate the average and differential transmittance and the orientation of maximum transmittance in every resolved image pixel. To isolate and analyze quantitative data of the objects (crystals), the anisotropy or maximum transmittance axis orientation image file opened in ImageJ was inverted (Ctrl + Shift + I) and thresholded using ImageJ's default automatic method (“Binary” → “Convert to Mask”). By using the ImageJ's algorithm, “Analyze Particles,” data of anisotropy or maximum transmittance axis orientation of objects in images could be obtained automatically. Diattenuation ratios were calculated by dividing anisotropy at 623 nm by that at 546 nm.

Consider `C[C@@H](CN=c1cc2n(-c3ccc(Cl)cc3)c3ccccc3nc-2cc1Nc1ccc(Cl)cc1)c1ccccc1` [Compound U], for which the Accumulation in macrophages result in data set [1] is on record as “greatest accumulation”. The “Intracellular localization of compound (fluorescence, TRITC channel)” value in data set [2] and in data set [3] was “localized at the periphery of the cell nuclei” each time. Besides, the “Diattenuation anisotropy of intracellular inclusions” value in data set [4] was “only in macrophages”.

Consider `Clc1ccc(Nc2cc3nc4ccccc4n(-c4ccc(Cl)cc4)c-3cc2=NCCc2ccccc2)cc1` [Compound P], for which, in data set [1], the Accumulation in macrophages entry was “greatest accumulation”. Further, the “Intracellular localization of compound (fluorescence, TRITC channel)” value in data set [2] and in data set [3] was “localized at the periphery of the cell nuclei” in each case. For the same compound, the “Diattenuation anisotropy of intracellular inclusions” value in data set [4] is reported as “higher diattenuation anisotropy”.
